Consider 1 compound from ChEMBL document CHEMBL4028852, “Design of a Chemical Probe for the Bromodomain and Plant Homeodomain Finger-Containing (BRPF) Family of Proteins” (J Med Chem, 2017).

Some results are limits rather than exact numbers.

One data set deals with hERG (Homo sapiens, UniProt Q12809). The data set is described as follows: Inhibition of human ERG at 30 uM.
Data set [1] has as its target T1, Transcription intermediary factor 1-alpha (Homo sapiens, UniProt O15164).
T1 sequence (O15164 whole entry): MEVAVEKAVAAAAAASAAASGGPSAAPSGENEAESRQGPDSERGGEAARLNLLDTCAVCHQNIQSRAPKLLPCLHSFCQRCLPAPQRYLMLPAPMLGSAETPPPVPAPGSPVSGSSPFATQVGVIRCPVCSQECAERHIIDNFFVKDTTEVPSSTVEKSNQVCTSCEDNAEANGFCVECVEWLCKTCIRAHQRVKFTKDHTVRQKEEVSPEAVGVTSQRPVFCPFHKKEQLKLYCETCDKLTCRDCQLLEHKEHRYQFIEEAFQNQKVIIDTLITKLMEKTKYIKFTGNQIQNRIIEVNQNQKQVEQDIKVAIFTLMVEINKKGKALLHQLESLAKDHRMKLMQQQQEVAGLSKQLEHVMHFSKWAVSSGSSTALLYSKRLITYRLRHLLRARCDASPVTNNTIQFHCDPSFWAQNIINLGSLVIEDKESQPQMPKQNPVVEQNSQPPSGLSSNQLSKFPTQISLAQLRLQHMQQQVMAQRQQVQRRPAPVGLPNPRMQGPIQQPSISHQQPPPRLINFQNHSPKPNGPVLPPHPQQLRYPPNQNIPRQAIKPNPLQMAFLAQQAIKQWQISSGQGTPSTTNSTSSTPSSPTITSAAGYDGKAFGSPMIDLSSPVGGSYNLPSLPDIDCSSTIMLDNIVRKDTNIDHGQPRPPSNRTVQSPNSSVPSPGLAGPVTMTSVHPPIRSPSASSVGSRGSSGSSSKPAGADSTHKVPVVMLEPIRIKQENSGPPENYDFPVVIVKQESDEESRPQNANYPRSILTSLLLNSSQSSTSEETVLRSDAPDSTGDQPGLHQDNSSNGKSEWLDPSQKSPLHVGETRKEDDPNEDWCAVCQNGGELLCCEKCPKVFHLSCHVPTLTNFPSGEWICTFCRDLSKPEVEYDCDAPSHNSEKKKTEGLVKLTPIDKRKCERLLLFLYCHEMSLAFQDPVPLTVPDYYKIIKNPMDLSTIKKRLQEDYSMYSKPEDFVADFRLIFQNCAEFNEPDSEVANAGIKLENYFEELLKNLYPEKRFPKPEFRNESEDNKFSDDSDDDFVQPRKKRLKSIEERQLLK
The experiment in a line: Inhibition of human TRIM24 bromodomain (790 to 977 residues) expressed in Escherichia coli BL21 after 1 hr by BROMOscan assay.

For data set [2], the target named is Bromodomain-containing protein 4 (Homo sapiens, UniProt O60885). The data set is described as follows: Inhibition of human BRD4 bromodomain 1 (unknown origin) by Alexa Fluor 647-JQ1 probe-based fluoresence polarization competition assay.
Another data set addresses T2, Peregrin (Homo sapiens, UniProt P55201).
T2 sequence (P55201 whole entry): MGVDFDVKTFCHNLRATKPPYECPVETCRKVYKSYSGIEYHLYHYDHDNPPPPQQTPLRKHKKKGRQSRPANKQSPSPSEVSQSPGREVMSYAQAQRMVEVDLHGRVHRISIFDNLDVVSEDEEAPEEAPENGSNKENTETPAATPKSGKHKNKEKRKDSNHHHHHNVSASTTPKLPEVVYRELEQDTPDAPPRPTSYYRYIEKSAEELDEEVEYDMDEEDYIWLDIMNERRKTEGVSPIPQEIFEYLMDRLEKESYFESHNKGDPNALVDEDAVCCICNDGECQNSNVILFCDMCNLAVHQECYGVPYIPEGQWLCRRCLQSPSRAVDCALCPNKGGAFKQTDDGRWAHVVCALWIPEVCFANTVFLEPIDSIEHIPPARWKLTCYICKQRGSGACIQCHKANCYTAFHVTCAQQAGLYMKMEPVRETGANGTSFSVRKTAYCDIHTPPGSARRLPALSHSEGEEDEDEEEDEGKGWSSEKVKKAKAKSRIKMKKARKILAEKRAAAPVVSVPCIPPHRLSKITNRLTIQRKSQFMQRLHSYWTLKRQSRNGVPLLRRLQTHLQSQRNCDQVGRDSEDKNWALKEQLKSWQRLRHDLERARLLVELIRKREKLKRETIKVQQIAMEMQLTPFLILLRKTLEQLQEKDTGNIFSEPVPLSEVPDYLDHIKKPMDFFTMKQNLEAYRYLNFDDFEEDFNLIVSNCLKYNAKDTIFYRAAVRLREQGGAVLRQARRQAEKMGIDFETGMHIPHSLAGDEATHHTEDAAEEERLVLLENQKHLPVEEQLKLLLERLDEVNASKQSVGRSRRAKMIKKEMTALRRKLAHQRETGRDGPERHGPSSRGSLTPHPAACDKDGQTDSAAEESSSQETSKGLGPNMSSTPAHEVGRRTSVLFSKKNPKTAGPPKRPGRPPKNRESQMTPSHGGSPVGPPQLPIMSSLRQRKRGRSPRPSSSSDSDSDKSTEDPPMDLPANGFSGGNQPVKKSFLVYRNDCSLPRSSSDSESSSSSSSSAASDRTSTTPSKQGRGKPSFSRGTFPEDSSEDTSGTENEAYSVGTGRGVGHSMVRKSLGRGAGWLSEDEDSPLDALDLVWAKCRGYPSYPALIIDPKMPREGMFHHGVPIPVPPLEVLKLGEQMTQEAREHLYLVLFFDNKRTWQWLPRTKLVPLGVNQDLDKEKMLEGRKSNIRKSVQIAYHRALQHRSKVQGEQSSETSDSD
The data set is described as follows: Inhibition of His-tagged BRPF1 (unknown origin) after 30 mins by alphaScreen assay. On the technique in general: Alpha assays give light when donor and acceptor beads are brought close together.

Data set [3] is described as follows: Fraction of drug absorbed in CD1 mouse at 3 mg/kg, po by UPLC-MS/MS analysis. As to conditions: in vivo, read-out: Fabs. In kind it is ADME, organism-based.

hERG, sequence (Q12809 whole entry): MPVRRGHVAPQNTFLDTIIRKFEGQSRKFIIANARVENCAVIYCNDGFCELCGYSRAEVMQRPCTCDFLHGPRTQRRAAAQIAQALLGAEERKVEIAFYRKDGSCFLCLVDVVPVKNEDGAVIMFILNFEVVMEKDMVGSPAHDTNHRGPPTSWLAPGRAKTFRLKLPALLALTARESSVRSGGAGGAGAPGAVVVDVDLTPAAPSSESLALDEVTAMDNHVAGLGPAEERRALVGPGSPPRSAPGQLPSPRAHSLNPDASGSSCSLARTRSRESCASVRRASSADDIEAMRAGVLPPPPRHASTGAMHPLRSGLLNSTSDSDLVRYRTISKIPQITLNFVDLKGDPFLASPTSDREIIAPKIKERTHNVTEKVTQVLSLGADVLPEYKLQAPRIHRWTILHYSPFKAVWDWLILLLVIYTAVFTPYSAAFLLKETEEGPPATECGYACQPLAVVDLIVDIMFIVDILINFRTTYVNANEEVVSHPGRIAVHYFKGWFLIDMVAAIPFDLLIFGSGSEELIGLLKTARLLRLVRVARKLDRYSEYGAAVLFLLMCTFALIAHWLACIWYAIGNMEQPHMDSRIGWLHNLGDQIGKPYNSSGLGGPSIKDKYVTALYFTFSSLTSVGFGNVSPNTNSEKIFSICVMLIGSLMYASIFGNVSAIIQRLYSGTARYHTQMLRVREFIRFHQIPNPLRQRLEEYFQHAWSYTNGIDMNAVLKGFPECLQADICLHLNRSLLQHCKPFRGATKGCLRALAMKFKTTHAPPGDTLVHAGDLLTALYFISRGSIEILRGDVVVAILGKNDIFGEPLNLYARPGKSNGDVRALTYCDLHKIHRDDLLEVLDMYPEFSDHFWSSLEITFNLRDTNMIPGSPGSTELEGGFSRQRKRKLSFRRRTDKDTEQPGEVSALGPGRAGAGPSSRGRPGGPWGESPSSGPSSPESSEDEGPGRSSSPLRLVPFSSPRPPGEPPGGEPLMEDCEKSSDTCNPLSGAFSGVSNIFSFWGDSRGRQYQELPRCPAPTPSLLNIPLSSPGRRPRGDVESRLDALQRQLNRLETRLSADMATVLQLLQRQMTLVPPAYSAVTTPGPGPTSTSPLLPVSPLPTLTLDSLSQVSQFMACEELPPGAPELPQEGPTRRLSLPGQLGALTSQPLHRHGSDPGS

Take `COc1cc(C#N)ccc1S(=O)(=O)Nc1ccc2c(c1)cc(C)c(=O)n2C`: the inhibition at 30 µM against hERG is below 40%. The IC50 is 1.6 µM in data set [1], above 33 µM in data set [2] and 0.114 µM against Peregrin. Further, the Fa in data set [3] is 35%.

In general, inhibition refers to the drop in the measured response relative to a control, in per cent. Read a low inhibition as little suppression. A word on the IC50: it is the point on the concentration scale where inhibition reaches its midpoint. A higher IC50 goes with weaker potency.
